{"source": "patent US20040038369A1", "about": "“Airway-specific trypsin-like enzymes and method of using the same” (priority 2000, published 2004)", "key": {"[1]": {"test_system": "normal human airway epithelial cells", "assay": "Calcium influx in normal human airway epithelial cells", "type": "cell-based", "settings": "AST 2 units/mL; trypsin 10 to 100 units/mL; SFLLRNamide 100 μM", "description": "The Ca^2+ influx due to the AST was examined with confluent normal epithelial cells adhered to three 10 cm dishes (purchased from BioWhittaker Corp.). The cells were peeled with a 10 mM EDTA/HEPES-Tyrode buffer solution for 10 minutes, recovered by a centrifugal treatment at 800 rpm at room temperature for 5 minutes, and then resuspended in 5 mL of HEPES-Tyrode buffer solution-Ca^2+ (−) pH 7.4. The recovered cells (about 1.2×10^6 cells) were suspended in 5 mL of HEPES-Tyrode buffer solution (1 μg/mL, containing Fura2-AM) to load the Fura2-AM to the cells at 37° C. for one hour. The cells were recovered by a centrifugal treatment at 800 rpm at room temperature for 5 minutes, twice washed with HEPES-Tyrode buffer solution-Ca^2+ (−) pH 7.4, and then resuspended in […] of HEPES-Tyrode buffer solution-Ca^2+ (−) pH 7.4. The cell suspension was mixed with 5 μL of 1M CaCl2 to give a final concentration of 1 mM CaCl2, and then incubated in a shaded state at room temperature for 5 minutes. The prepared Fura2-AM-loaded infected cells were dispensed into a 96 well plate in a volume of 100 μL/well, further subjected to the dispensation of HEPES-Tyrode buffer solution-Ca^2+ (+) pH 7.4 in a volume of 80 μL/well, and then assayed with Fluorescence Drug Screening System (Hamamatsu Photonics Co.). […]"}, "PAR-1": {"target": "T1, PAR-1 (Homo sapiens, UniProt P25116)", "T1 construct": "expressed in transfected cells; host or cells: Sf9 insect cells infected with recombinant baculovirus VL-PAR (pVL1393)", "T1 sequence (P25116 22-425)": "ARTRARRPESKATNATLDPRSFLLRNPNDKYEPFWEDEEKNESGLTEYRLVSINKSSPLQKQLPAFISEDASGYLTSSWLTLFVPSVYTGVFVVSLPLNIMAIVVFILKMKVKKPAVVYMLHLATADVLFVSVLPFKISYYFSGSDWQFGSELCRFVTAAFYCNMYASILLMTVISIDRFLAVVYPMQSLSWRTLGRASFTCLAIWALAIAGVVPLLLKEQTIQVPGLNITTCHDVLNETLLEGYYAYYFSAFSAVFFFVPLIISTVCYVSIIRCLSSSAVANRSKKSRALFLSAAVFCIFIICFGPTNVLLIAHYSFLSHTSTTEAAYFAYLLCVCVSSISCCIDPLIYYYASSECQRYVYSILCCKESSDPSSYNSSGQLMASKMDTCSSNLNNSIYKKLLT", "assay": "Calcium influx in PAR-1-expressing insect cells", "type": "cell-based", "settings": "AST 2 units/mL; trypsin, thrombin 0.1 to 10 units/mL; SFLLRNamide 10 to 100 μM", "procedure": "The above-obtained recombinant baculovirus VL-PAR for expressing the PAR was used to infect 1.0×10^7 Sf9 cells sowed on a 75 cm^2 flask at an MOI=2, and was then left and stationally cultured at 27° C. for 40 hours. After the culture, the infected cells were recovered and then subjected to a calcium influx experiment to-confirm the function of the PAR.\nThe recovered infected cells (about 5×10^6 cells) were once washed with HEPES-Tyrode buffer solution-Ca^2+ (−) pH 7.4, and then suspended in 5 mL of HEPES-Tyrode buffer solution (containing Fura2-AM, 1 μg/mL) to load the Fura2-AM on the cells at 27° C. for 30 minutes. The suspension was centrifuged at 800 rpm at room temperature for 5 minutes to recover the cells. The cells were twice washed with HEPES-Tyrode buffer solution-Ca^2+ (−) pH 7.4 and then resuspended in 5 mL of HEPES-Tyrode buffer solution-Ca^2+ (−) pH 7.4. The cell suspension was mixed with 5 μL of 1M CaCl2 to give a final concentration of 1 mM CaCl2, and then incubated in a shaded state at room temperature for 5 minutes. The prepared Fura2-AM-loaded infected cells were dispensed into a 96 well plate in a volume of 100 μL/well, further subjected to the dispensation of HEPES-Tyrode buffer solution-C^2+ (+) pH 7.4 in a volume of 80 μL/well, and then assayed with a Fluorescence Drug Screening System (made by Hamamatsu Photonics Co.). Namely, [intensity of 500 nm fluorescent light due to 340 nm exciting light]/[intensity of 500 nm fluorescent light due to 380 nm exciting light] (reflecting the concentration of calcium in the cells) was assayed."}, "[2]": {"test_system": "Muc5AC mRNA in NCI-H292 cells", "assay": "Muc5AC mRNA expression in NCI-H292 by real time PCR", "type": "cell-based, human", "settings": "HAST 300 mU/mL, 24 hours", "description": "NCI-H292 cells (purchased from ATCC) were suspended in 10% FCS-containing RPMI-1640 (produced by Gibco Corp.), sowed on a 96 well plate (produced by Falcon Corp.) in a density of 6.0×10^4 cells/cm^2, cultured for 72 hours, subjected to the replacement of the culture solution by RPMI-1640 containing 0.1% of BSA, and further cultured for 24 hours.\nBefore added to the cells, leupeptin in various concentrations was reacted with 300 mU/mL of HAST on ice for 30 minutes, and further heated at 37° C. Then, the culture solution in the wells was wholly exchanged by the culture medium containing the HAST or leupeptin to start the treatment, and the treatment was carried out for 24 hours. HAST (300 mU/mL) thermally treated at 99° C. for 10 minutes as a control, EGF alone (1 ng/mL), and a combination of EGF (5 ng/mL) with leupeptin (10^−5 M) were also similarly treated. The number of the samples was 3.\nAn EGF treatment sample was continuously diluted five times to prepare a standard. […]\n(§1) For both the Muc5AC and the β-actin, the expression quantities of the samples were relatively compared from the obtained Ct values and the standard straight line. […]\nas §1"}}}
{"substance": "HAST: human airway-specific trypsin-like enzyme; propeptide moiety bound to trypsin-like protein moiety via a disulfide bond", "values": [{"measurement": "Ca2+ influx", "setting": "[1]", "result": "observed"}, {"measurement": "Ca2+ influx", "setting": "PAR-1", "result": "observed"}, {"measurement": "Muc5AC gene expression", "setting": "[2]", "result": "promoted"}]}
